# Laboratory results from PMC5529018, “Discovery of novel brain permeable and G protein-biased beta-1 adrenergic receptor partial agonists for the treatment of neurocognitive disorders” (PLoS ONE, 2017).
# Tests used:
# [1] = system: LPS-induced TNFα production in primary microglia; experiment: In vitro primary microglia TNFα assay; format: cell-based, Sprague Dawley rat; details: Rattus norvegicus, 4 h, read-out: inhibition of LPS-induced TNFα production
# Excerpt: Mixed glial cells were obtained from the cerebral cortex of Sprague Dawley rat pups at postnatal days 1–3. Briefly, neonates were euthanized by decapitation and their brain tissues were collected for cortex isolation. The isolated cortex was then trypsinized, triturated, and placed into tissue culture flasks in DMEM supplemented with 10% fetal bovine serum and 1% Penicillin/Streptomycin. After 10 days in vitro, microglia were harvested by gentle shaking of the growth flask, plated in a 96 well plate at a density of 30,000 cells/well, and incubated at 37°C overnight.
# [2] = target: T1, ADRB1 (Homo sapiens, UniProt P08588); experiment: cAMP assay (HTRF), ADRB1; format: cell-based; parameters: expressed in transfected cells; host or cells: HEK-293; details: for cAMP pathway ADRB1 EC50 / EC50: HEK-293 cells, geometric mean (95% confidence limits) of at least two experiments; for ADRB1 agonist activity (cAMP pathway), in words: compared to xamoterol (S); for Emax: 0.5 h, percent efficacy vs maximum response of isoproterenol, read-out: cAMP pathway ADRB1 % Iso max; for EC50: read-out: cAMP pathway ADRB1 EC50
# Protocol: Pharmacological effects of compounds at the cAMP pathway mediated by ADRB1 were evaluated by measuring cAMP production using the homogenous time-resolved fluorescence detection method with HEK-293 cells stably expressing human recombinant ADRB1. Briefly, cells were suspended in HBSS buffer completed with 20 mM HEPES (pH 7.4) and 500 μM IBMX (3-isobutyl-1-methylxanthine) and distributed at a density of 3x10^3 cells/well. […] Following incubation, the cells were lysed and the fluorescence acceptor (D2-labeled cAMP) and fluorescence donor (anti-cAMP antibody labeled with europium cryptate) were added. […] The results were expressed as a percent of the maximum efficacy achieved with isoproterenol. Pharmacological effects of compounds at the cAMP pathway mediated by ADRB2 and ADRB3 were measured as described above using CHO cells stably expressing human recombinant ADRB2 and human SK-N-MC neurotumor cells endogenously expressing ADRB3, respectively.
# [3] = system: LPS-induced TNFα response; experiment: In vivo LPS assay; parameters: species or system C57Bl/6J mice; details: 90 min post-LPS
# Protocol: ; subcutaneous; […]; intraperitoneal; n = 4) or vehicle (5% DMSO/20%PEG400/water; intraperitoneal; n = 12) 15 min prior to LPS (50 ug/kg; intraperitoneal). A control group was injected with vehicle 15 minutes prior to saline (n = 18). Following injections, mice were single-housed. At 90 min post-LPS/saline, mice were deeply anesthetized with isoflurane and blood was collected from the right ventricle via cardiac puncture (23 g needle) into lithium heparin-containing vials (BD microtainer plasma tubes). Subsequently, brains were collected after perfusion with phosphate-buffered saline. Plasma was separated by centrifugation (11,000 rpm for 3 minutes) within 60 min of collection and stored at -80°C until analysis. The concentration of TNFα in the collected plasma was measured by ELISA (Invitrogen, KMC3012) according to the manufacturer’s instruction. The LPS-induced inflammatory response in the CNS was assessed by measuring mRNA expression for genes related to neuroimmune activation in brain tissue according to the previously reported method. Briefly, total RNA was extracted from hippocampus containing coronal sections using the RNeasy Lipid Tissue Mini Kit (Qiagen), and transcribed into cDNA (Superscript III, Invitrogen). PCR was performed in duplicate using TaqMan gene expression assays, TNFα (Mm00443258_m1), IL1b (Mm00434228_m1), IL6 (Mm00446190_m1), and glyceraldehyde-3-phosphate dehydrogenase (GAPDH; Mm99999915_g1). Fold changes of expression relative to control were determined after normalization to GAPDH. Relative quantification and fold change were calculated by the comparative CT method. Brain uptake of STD-101-D1 was determined in brain tissue. […]
# [4] = target: panel of CNS relevant targets, including G protein-coupled receptors and transporters; experiment: Off-target binding screen, panel of CNS relevant targets; details: broad range of neurotransmitter transporters, ion channels and other CNS proteins; read-out: off-target affinity Ki
# [5] = target: T1, ADRB1; experiment: β-arrestin assay (PathHunter enzyme fragment complementation); format: cell-based; parameters: host or cells: CHO-K1 (PathHunter)
# Protocol: Pharmacological activity of compounds in the β-arrestin pathway mediated by ADRB1 were evaluated using an enzyme fragment complementation method with a β‐galactosidase functional reporter. An engineered CHO-K1-ADRB1 PathHunter cell line (DiscoveRx) was used in the assay. In this cell line, the enzyme acceptor (β‐galactosidase fragment) is fused to β-arrestin and the enzyme donor (β‐galactosidase fragment) is fused to the ADRB1. Thus, activation of the ADRB1 stimulates binding of β-arrestin to the ProLink-tagged ADRB1 and forces complementation of the two enzyme fragments, resulting in the formation of an active β‐galactosidase enzyme. Briefly, CHO-K1-ADRB1 PathHunter cell lines were plated in a total volume of 20 μL cell plating reagent (DiscoveRx, 93-0563R0A) at a density of 2,500 cells/well into 384 well microplates and incubated overnight at 37°C in 5% CO2. […] Chemiluminescent signal was then read with a PerkinElmer Envision (Perkin Elmer, Inc., MA) instrument. The results were expressed as a percent of the maximum efficacy achieved with isoproterenol.
# [6] = Cardiovascular studies (heart rate, blood pressure); format: in vivo, Sprague-Dawley rats; details: anesthetized rats, 3 mg/kg subcutaneous
# Protocol: A polyethylene catheter (PE50) filled with heparinized saline was then inserted into the tail artery and connected to the blood pressure transducer system. After ensuring the absence of any air bubbles, 5–10 min of baseline systolic and diastolic blood pressure along with heart rate measurements were recorded using LabChart Pro (AD Instruments, CO).
# [7] = Pharmacokinetic study 2, 20-min post-dose collection; format: in vivo, Sprague-Dawley rats; details: rat, 10 mg/kg, 20 min post-dose
# Excerpt: Two cohorts of Sprague-Dawley rats were used in two independent studies. All animals were fasted overnight before the experiment with free access to water. In study 1, a total of 18 rats were used for a 4 hr time course pharmacokinetic (PK) study. Rats were anesthetized with 3% isoflurane and catheters were implanted into the jugular and/or portal veins for compound administration and/or blood sampling at 1 to 2 days prior to the experiments as previously described. […] Four hours post-dose, rats were deeply anesthetized with isoflurane and blood samples were collected by cardiac puncture. In study 2, a total of 18 rats were used for a 20 min post-dose collection study. […] At 20 min post-dose, rats were deeply anesthetized with isoflurane and blood samples were collected by cardiac puncture. Brains were collected after perfusion with phosphate buffered saline. All plasma samples were immediately separated after collection by centrifugation (11,000 rpm for 3 minutes) and stored at −80°C until analysis. […] Tulobuterol was used as the internal standard. The flow rate was set to 0.45 ml/min. Column temperature was 25°C. […] The injection volume was 20 μl. The mass spectrometer was operated in the positive mode with multiple-reaction monitoring (MRM). […] Mobile phase A consisted of 10 mM ammonium acetate and 0.1% formic acid in LCMS grade water. Mobile phase B consisted of 10 mM ammonium acetate and 0.1% formic acid in LCMS grade acetonitrile:water 90:10% (v/v). […] Five μl of the extracted samples were injected. […] Data acquisition and analysis were performed using the Analyst 1.6.1 software (AB SCIEX, CA).
# [8] = cited from earlier work
# T1 sequence (P08588 whole entry): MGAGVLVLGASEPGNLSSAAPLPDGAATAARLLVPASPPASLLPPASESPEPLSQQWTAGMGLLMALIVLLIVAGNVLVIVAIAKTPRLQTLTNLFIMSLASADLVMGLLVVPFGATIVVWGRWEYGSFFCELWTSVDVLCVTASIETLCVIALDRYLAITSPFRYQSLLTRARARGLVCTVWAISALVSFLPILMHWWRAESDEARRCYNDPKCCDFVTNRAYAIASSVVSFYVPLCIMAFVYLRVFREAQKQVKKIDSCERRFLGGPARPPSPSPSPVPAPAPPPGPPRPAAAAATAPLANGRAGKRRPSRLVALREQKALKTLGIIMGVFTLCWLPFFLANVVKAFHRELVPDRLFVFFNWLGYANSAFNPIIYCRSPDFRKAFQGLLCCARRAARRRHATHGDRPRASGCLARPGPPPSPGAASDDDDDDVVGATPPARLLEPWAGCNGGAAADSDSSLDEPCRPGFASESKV
compound,measurement,setting,value
CC(C)NCC(O)c1ccc(O)c(O)c1 (stereo not shown) [isoproterenol],inhibition at 10 µM,[1],~80%
"O=C(NCCNC[C@H](O)COc1cccc2c(O)cccc12)N1CCOCC1 [STD-101-E, (S)-N-(2-((2-hydroxy-3-((5-hydroxynaphthalen-1-yl)oxy)propyl)amino)ethyl)morpholine-4-carboxamide]",cAMP pathway ADRB1 EC50,[2],no response
same,"ADRB1 agonist activity (cAMP pathway), in words",[2],inactive
"N#Cc1cc(OC[C@@H](O)CNCCNC(=O)N2CCOCC2)c(F)cc1O [STD-101-B8, (S)-N-(2-((3-(5-cyano-2-fluoro-4-hydroxyphenoxy)-2-hydroxypropyl)amino)ethyl)morpholine-4-carboxamide]",cAMP pathway ADRB1 EC50,[2],no response
same,"ADRB1 agonist activity (cAMP pathway), in words",[2],abolished the agonist activity completely
"N#Cc1cc(OC[C@@H](O)CNCCNC(=O)N2CCOCC2)ccc1O [STD-101-B6, (S)-N-(2-((3-(3-cyano-4-hydroxyphenoxy)-2-hydroxypropyl)amino)ethyl)morpholine-4-carboxamide]",Emax,[2],25.1 ± 4.7%
same,EC50,[2],7.1 nM
same,"ADRB1 agonist activity (cAMP pathway), in words",[2],decrease in both potency and efficacy
O=C(NCCNC[C@H](O)COc1ccc(O)cc1)N1CCOCC1 [Xamoterol (S)],LPS-induced systemic (plasma) TNFα response,[3]; 3 mg/kg pre-treatment 15 min prior to LPS,markedly inhibited
same,Ki,[4],> 10000 nM
same,inhibition at 10 µM,[1],~55%
"O=C(NCCNC[C@H](O)COc1cc(Cl)c(O)cc1F)N1CCOCC1 [STD-101-B4, (S)-N-(2-((3-(5-chloro-2-fluoro-4-hydroxyphenoxy)-2-hydroxypropyl)amino)ethyl)morpholine-4-carboxamide]",cAMP pathway ADRB1 EC50,[2],no response
same,"ADRB1 agonist activity (cAMP pathway), in words",[2],abolished the agonist activity completely
"COc1ccc(CCNCC(O)COc2ccc(O)c(O)c2)cc1OC (stereo not shown) [RO363, reference compound]",EC50,"[5]; CHO-K1-ADRB1 PathHunter cells, read-out: β-arrestin pathway ADRB1 EC50",32.2 nM
same,β-arrestin pathway ADRB1 % Iso max,[5]; percent efficacy vs maximum response of isoproterenol,36.5%
same,"decrease in potency vs xamoterol (S), cAMP ADRB1",[2],approximately 3 fold
same,"increase in efficacy vs xamoterol (S), cAMP ADRB1",[2],approximately 2 fold
same,Emax,[2],104 ± 23.9%
same,EC50,[2],7.9 nM
"O=C(NCCNCC(O)COc1ccc(O)cc1)N1CCOCC1 (stereo not shown) [Xamoterol, reference compound]",decrease in blood pressure,[6],9%
same,increase in heart rate,[6],4%
same,CNS inflammatory markers after LPS,[3]; 3 mg/kg subcutaneous pre-treatment,Significant effects of xamoterol were not observed
same,plasma concentration after PO as percent of that after IP,[7],0.2%
same,plasma concentration after PO as percent of that after IV,[7],0.7%
same,oral bioavailability in humans,[8],5%
